Reference: patent US20250017936A1, “CELL-POTENT BISUBSTRATE INHIBITORS FOR NICOTINAMIDE N-[…] (NNMT) AND USES THEREOF” (priority 2021, published 2025)
Like-named read-outs stand apart in the source and are kept apart here.

What was measured:
NNMT [1] = target: T1, NNMT (Homo sapiens (Human), UniProt P40261); test: biochemical; format: biochemical
NNMT [2] = target: T1, NNMT; test: Fluorescence polarization (FP)-based competition assay with probe II138; format: binding; settings: read-out: Ki (FP Assay)
[3] = SAHH-coupled Assay IC50, 10 μM SAM, 10 μM nicotinamide (Km), 0.1 μM NNMT

T1 sequence (P40261 whole entry): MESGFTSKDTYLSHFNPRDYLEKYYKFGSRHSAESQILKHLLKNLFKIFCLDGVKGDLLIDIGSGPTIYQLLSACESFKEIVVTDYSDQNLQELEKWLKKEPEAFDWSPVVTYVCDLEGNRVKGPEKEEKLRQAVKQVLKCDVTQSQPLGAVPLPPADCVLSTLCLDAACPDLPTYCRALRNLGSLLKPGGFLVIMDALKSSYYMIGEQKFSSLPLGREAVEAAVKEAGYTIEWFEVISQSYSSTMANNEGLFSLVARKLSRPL

Structure (SMILES)	IC50 (NNMT [1]; [3])	IC50 (NNMT [1]; 10 μM SAM, 10 μM nicotinamide (Km), 0.1 μM NNMT, read-out: SAHH-coupled Assay IC50)	IC50 (NNMT [1]; 10 μM SAM, 10 μM nicotinamide (Km), 0.1 μM NNMT, read-out: SAHH-coupled assay IC50)	Ki (NNMT [1]; read-out: Ki, app)	IC50 (NNMT [1]; substrate and SAM concentration at 4 Km, read-out: SAHH-coupled Assay IC50)	Ki (NNMT [2])
CCN(CC#Cc1cccc(C(N)=O)c1)C[C@H]1C[C@@H](n2ccc3c(Cl)ncnc32)[C@H](O)[C@@H]1O [II542, 3-(3-((((1R,2R,3S,4R)-4-(4-chloro-7H-pyrrolo[2,3-d]pyrimidin-7-yl)-2,3dihydroxycyclopentyl)methyl)(ethyl)amino)prop-1-yn-1-yl)benzamide]	7700 nM	–	–	–	–	–
CC(=O)N(CC#Cc1cccc(C(N)=O)c1)C[C@H]1C[C@@H](n2ccc3c(N)ncnc32)[C@H](O)[C@@H]1O [II642, 3-(3-(N-(((1R,2R,3S,4R)-4-(4-amino-7H-pyrrolo[2,3-d]pyrimidin-7-yl)-2,3-dihydroxycyclopentyl)methyl)acetamido)prop-1-yn-1-yl) benzamide]	–	25 ± 7 nM	25 ± 7 nM	4 ± 0.02 nM	93 ± 7 nM	70 ± 8 nM
CC(=O)N(CC#Cc1cccc(C(N)=O)c1)C[C@H]1O[C@@H](n2cnc3c(N)ncnc32)[C@H](O)[C@@H]1O [II661, 3-(3-(N-(((2R,3S,4R,5R)-5-(6-amino-9H-purin-9-yl)-3,4-dihydroxytetrahydrofuran-2-yl)methyl)acetamido)prop-1-yn-1-yl)benzamide]	7600 nM	–	–	–	–	–
